Legend:
DGKζ = DGKζ (Homo sapiens (Human), UniProt Q13574); experiment: Biochemical DGK IC50 assay, DGKζ ADP-Glo assay; conditions: 0.5 nM enzyme, 140 μM ATP, 80 μM DAG; read-out: DGKζ ADP-Glo assay IC50
How it was run: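 ADP formation measured by ADP-Glo luminescence, with test compounds at final 1.55–10000 nM or 23.3–150000 nM. Enzyme: purified full-length human DGKζ from Sf9 insect cells; substrate: DAG/PS micelles in 25 mM HEPES pH 7.0, 0.5 mM EDTA, octyl glucoside.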

DGKα = DGKα (Homo sapiens (Human), UniProt P23743); experiment: Biochemical DGK IC50 assay, DGKα ADP-Glo assay; conditions: 7.5 nM enzyme, 140 μM ATP, 80 μM DAG
Sequence of DGKα (P23743 whole entry): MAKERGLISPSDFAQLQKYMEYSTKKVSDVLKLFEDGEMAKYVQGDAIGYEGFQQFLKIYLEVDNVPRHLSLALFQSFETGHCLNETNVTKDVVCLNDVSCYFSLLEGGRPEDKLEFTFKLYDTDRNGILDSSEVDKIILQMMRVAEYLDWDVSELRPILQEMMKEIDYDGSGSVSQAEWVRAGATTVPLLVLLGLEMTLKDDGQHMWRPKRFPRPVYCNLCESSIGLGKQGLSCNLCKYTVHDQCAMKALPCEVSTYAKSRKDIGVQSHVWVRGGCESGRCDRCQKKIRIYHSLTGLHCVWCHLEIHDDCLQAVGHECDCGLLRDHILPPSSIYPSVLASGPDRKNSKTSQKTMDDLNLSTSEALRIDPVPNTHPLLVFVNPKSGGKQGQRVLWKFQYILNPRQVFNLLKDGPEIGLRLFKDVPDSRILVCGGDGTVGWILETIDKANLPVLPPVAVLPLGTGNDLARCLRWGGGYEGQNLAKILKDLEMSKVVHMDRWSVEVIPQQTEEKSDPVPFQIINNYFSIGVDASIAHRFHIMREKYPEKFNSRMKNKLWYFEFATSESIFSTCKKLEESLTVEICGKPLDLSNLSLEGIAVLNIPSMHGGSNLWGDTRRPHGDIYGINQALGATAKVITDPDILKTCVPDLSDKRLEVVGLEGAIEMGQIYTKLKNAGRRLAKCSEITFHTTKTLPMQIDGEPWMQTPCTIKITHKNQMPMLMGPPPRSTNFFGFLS
How it was run: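 Compounds at final 1.55˜10000 nM or 23.3˜150000 nM were tested against full-length DGKα. Substrate was lipid micelles of DAG and PS resuspended in 25 mM HEPES pH 7.0 with 0.5 mM EDTA and 160 mM octyl β-D-glucopyranoside. ADP formed was detected by ADP-Glo.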

Sequence of DGKζ (Q13574 other isoform, or with tags, fused parts or gaps): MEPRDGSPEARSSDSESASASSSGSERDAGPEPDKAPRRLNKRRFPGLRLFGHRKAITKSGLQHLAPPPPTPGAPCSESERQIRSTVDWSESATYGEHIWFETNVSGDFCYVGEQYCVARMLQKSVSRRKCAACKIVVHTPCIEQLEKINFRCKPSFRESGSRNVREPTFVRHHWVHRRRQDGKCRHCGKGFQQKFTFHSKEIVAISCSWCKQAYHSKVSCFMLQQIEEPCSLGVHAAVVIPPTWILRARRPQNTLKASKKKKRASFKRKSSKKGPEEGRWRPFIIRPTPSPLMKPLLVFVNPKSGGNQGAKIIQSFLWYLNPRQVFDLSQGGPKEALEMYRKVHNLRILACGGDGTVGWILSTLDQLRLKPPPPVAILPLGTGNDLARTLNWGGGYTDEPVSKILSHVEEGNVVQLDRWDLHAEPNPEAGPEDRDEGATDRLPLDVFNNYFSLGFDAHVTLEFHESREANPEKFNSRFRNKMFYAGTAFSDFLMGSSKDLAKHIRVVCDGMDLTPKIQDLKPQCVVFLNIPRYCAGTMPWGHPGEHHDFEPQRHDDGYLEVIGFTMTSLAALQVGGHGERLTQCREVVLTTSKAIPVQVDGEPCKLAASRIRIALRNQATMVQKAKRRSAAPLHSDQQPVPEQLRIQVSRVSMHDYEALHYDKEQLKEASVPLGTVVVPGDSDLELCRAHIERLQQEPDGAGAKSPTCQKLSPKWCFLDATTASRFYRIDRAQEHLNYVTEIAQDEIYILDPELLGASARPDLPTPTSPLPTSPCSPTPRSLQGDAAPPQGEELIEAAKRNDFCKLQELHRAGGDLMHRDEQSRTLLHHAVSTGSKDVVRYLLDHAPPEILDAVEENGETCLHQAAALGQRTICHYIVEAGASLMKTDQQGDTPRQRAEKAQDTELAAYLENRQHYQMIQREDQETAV

SMILES | IC50 (DGKζ) [nM] | IC50 (DGKα) [nM]
CC[C@H]1CN(C(C)c2ccc(F)cc2C)[C@H](CC)CN1c1cc(=O)n(C)c2cn(CC#N)nc12 (stereo partly drawn) [Compound A84, 2-(7-((2S,5R)-2,5-diethyl-4-(1-(4-fluoro-2-methylphenyl)ethyl)piperazin-1-yl)-4-methyl-5-oxo-4,5-dihydro-2H-pyrazolo[4,3-b]pyridin-2-yl)acetonitrile] | 128 | 2890
CC[C@H]1CN(C(C)c2ccc(Cl)cn2)[C@H](CC)CN1c1cc(=O)n(C)c2cn(CC#N)nc12 (single isomer, unassigned) [Compound A360b] | 134 | 2.7
CC[C@H]1CN(C(C)c2cnc3c(n2)CCCC3)[C@H](CC)CN1c1cc(=O)n(C)c2cn(CC#N)nc12 (single isomer, unassigned) [Compound A357b] | 12 | 646
CC[C@H]1CN(C(C)c2nc3ccccc3n2C(C)C)[C@H](CC)CN1c1cc(=O)n(C)c2cn(CC#N)nc12 (stereo partly shown) [Compound A193] | 5730 | > 10000
CC[C@H]1CN(C(C)c2ccc3c(n2)OCCO3)[C@H](CC)CN1c1cc(=O)n(C)c2cn(CC#N)nc12 (stereo partly drawn) [Compound A159, 2-(7-((2S,5R)-4-(1-(2,3-dihydro-[1,4]dioxino[2,3-b]pyridin-6-yl)ethyl)-2,5-diethylpiperazin-1-yl)-4-methyl-5-oxo-4,5-dihydro-2H-pyrazolo[4,3-b]pyridin-2-yl)acetonitrile] | 30 | 190
CC[C@H]1CN(C(C)c2ccc(F)cc2F)[C@H](CC)CN1c1cc(=O)n(C)c2cn(CC#N)nc12 (single isomer, unassigned) [Compound A132a] | 5.9 | 8.9
CC[C@@H]1CN(c2cc(=O)n(C)c3cn(CC#N)nc23)[C@@H](C)CN1C(C)c1ccc(F)cc1C(F)(F)F (single isomer, unassigned) [Compound A218b] | 3960 | > 10000
CC[C@H]1CN(C(C)c2nc3cccc(C(F)(F)F)c3n2CC)[C@H](CC)CN1c1cc(=O)n(C)c2cn(CC#N)nc12 (single isomer, unassigned) [Compound A230b] | 494 | 6200
CC[C@H]1CN(C(C)c2ccc(C)c(C)n2)[C@H](CC)CN1c1cc(=O)n(C)c2cn(CC#N)nc12 (stereo partly shown) [Compound A363] | 55 | 166
CC[C@@H]1CN(c2cc(=O)n(C)c3cn(CC#N)nc23)[C@@H]([C@@H](C)O)CN1C(C)c1ccc2nccnc2c1 (stereo partly drawn) [Compound A259, 2-(7-((2R,5R)-5-ethyl-2-((R)-1-hydroxyethyl)-4-(1-(quinoxalin-6-yl)ethyl)piperazin-1-yl)-4-methyl-5-oxo-4,5-dihydro-2H-pyrazolo[4,3-b]pyridin-2-yl)acetonitrile] | 380 | > 10000
CC[C@H]1CN(C(C)c2ccc3nccnc3c2)[C@H](CC)CN1c1cc(=O)n(C)c2cn(CC#N)nc12 (mixture of isomers) [Compound A28, 2-(7-((2S,5R)-2,5-diethyl-4-(1-(quinoxalin-6-yl)ethyl)piperazin-1-yl)-4-methyl-5-oxo-4,5-dihydro-2H-pyrazolo[4,3-b]pyridin-2-yl)acetonitrile] | 6.7 | 310
CC[C@H]1CN(C(C)c2ccc3nc(O)cnc3c2)[C@H](CC)CN1c1cc(=O)n(C)c2cn(CC#N)nc12 (single isomer, unassigned) [Compound A282b] | 6960 | 10500
CC[C@H]1CN(C(C)c2ccc(OC(C)C)cn2)[C@H](CC)CN1c1cc(=O)n(C)c2cn(CC#N)nc12 (stereo partly shown) [Compound A140] | 189 | 82
CC[C@H]1CN(C(C)c2ccc(F)cc2OC(C)C)[C@H](CC)CN1c1cc(=O)n(C)c2cn(CC#N)nc12 (stereo partly shown) [Compound A142] | 1220 | 6580
CC[C@H]1CN(C(C)c2ccc3c(n2)OCCN3C)[C@H](CC)CN1c1cc(=O)n(C)c2cn(CC#N)nc12 (stereo partly drawn) [Compound A166, 2-(7-((2S,5R)-2,5-diethyl-4-(1-(1-methyl-2,3-dihydro-1H-pyrido[2,3-b][1,4]oxazin-6-yl)ethyl)piperazin-1-yl)-4-methyl-5-oxo-4,5-dihydro-2H-pyrazolo[4,3-b]pyridin-2-yl)acetonitrile] | 2380 | > 10000
CC[C@H]1CN(C(C)c2ccc(C(F)(F)F)cc2OC)[C@H](CC)CN1c1cc(=O)n(C)c2cn(CC#N)nc12 (stereo partly shown) [Compound A157] | 1030 | 2990
CC[C@H]1CN(C(C)c2c(F)cncc2F)[C@H](CC)CN1c1cc(=O)n(C)c2cn(CC#N)nc12 (stereo partly shown) [Compound A87] | 211 | 114
CC[C@H]1CN(C(C)c2ccc(C(C)(C)C#N)cn2)[C@H](CC)CN1c1cc(=O)n(C)c2cn(CC#N)nc12 (stereo partly shown) [Compound A386] | 418 | 689
CC[C@H]1CN(C(C)c2ccc(F)cc2C(N)=O)[C@H](CC)CN1c1cc(=O)n(C)c2cn(CC#N)nc12 (stereo partly shown) [Compound A289] | 1130 | > 10000

SMILES | IC50 (DGKζ) [nM] | IC50 (DGKα) [nM]
COC(=O)C1CN(c2cc(=O)n(C)c3cn(CC#N)nc23)CCN1[C@H](C)c1ccc2nccnc2c1 (single isomer, unassigned) [Compound A173b] | > 10000 | > 10000
CC[C@H]1CN(C(C)c2cc3ccccc3c(C)n2)[C@H](CC)CN1c1cc(=O)n(C)c2cn(CC#N)nc12 (stereo partly shown) [Compound A367] | 3590 | 19300
CC[C@H]1CN(C(C)c2ccc(F)c(OC)c2)[C@H](CC)CN1c1cc(=O)n(C)c2cn(CC#N)nc12 (stereo partly shown) [Compound A82] | 90 | 1020
Cc1cnc2ccc([C@@H](C)N3C[C@H](C)N(c4cc(=O)n(C)c5cn(CC#N)nc45)C[C@H]3C)cc2n1 [Compound A269c, 2-(7-((2S,5R)-2,5-dimethyl-4-((R)-1-(3-methylquinoxalin-6-yl)ethyl)piperazin-1-yl)-4-methyl-5-oxo-4,5-dihydro-2H-pyrazolo[4,3-b]pyridin-2-yl)acetonitrile] | > 10000 | > 10000
Cc1cnc2ccc([C@H](C)N3C[C@H](C)N(c4c(C#N)c(=O)n(C)c5cn(CC#N)nc45)C[C@H]3C)cc2n1 [Compound A318, 2-(cyanomethyl)-7-((2S,5R)-2,5-dimethyl-4-((S)-1-(3-methylquinoxalin-6-yl)ethyl)piperazin-1-yl)-4-methyl-5-oxo-4,5-dihydro-2H-pyrazolo[4,3-b]pyridine-6-carbonitrile] | 15 | 6490
CC[C@H]1CN(C(C)c2ncc(F)cc2C(F)(F)F)[C@H](CC)CN1c1cc(=O)n(C)c2cn(CC#N)nc12 (stereo partly drawn) [Compound A136, 2-(7-((2S,5R)-2,5-diethyl-4-(1-(5-fluoro-3-(trifluoromethyl)pyridin-2-yl)ethyl)piperazin-1-yl)-4-methyl-5-oxo-4,5-dihydro-2H-pyrazolo[4,3-b]pyridin-2-yl)acetonitrile] | 317 | 61900
CC(c1ccc2ncnn2c1)N1C[C@H](C)N(c2cc(=O)n(C)c3cn(CC#N)nc23)C[C@H]1C (stereo partly shown) [Compound A34] | 5800 | 8300
CC[C@H]1CN(C(C)c2ccc3nccnc3c2)[C@H](CC)CN1c1cc(=O)n(CCO)c2cn(CC#N)nc12 (stereo partly drawn) [Compound A95, 2-(7-((2S,5R)-2,5-diethyl-4-(1-(quinoxalin-6-yl)ethyl)piperazin-1-yl)-4-(2-hydroxyethyl)-5-oxo-4,5-dihydro-2H-pyrazolo[4,3-b]pyridin-2-yl)acetonitrile] | 53 | 12200
CC[C@H]1CN(C(C)c2ccc(C(F)(F)F)nc2)[C@H](CC)CN1c1cc(=O)n(C)c2cn(CC#N)nc12 (single isomer, unassigned) [Compound A135a] | 97 | 398
COC(C)c1cc(F)ccc1C(C)N1C[C@H](C)N(c2cc(=O)n(C)c3cn(CC#N)nc23)C[C@H]1C (single isomer, unassigned) [Compound A286a] | 2610 | > 10000
CC[C@H]1CN(C(C)c2ccc(C(F)(F)F)cc2)[C@H](CC)CN1c1cc(=O)n(C)c2cn(CC#N)nc12 (single isomer, unassigned) [Compound A103b] | 2690 | 809
CC[C@H]1CN(C(C)c2ccc(F)cc2Cl)[C@H](CC)CN1c1cc(=O)n(C)c2cn(CC#N)nc12 (stereo partly shown) [Compound A116] | 146 | 5760
CC[C@H]1CN(C(C)c2ccncn2)[C@H](CC)CN1c1cc(=O)n(C)c2cn(CC#N)nc12 (stereo partly shown) [Compound A131] | 8990 | 287
CC(C1CCCCC1)N1C[C@H](C)N(c2cc(=O)n(C)c3cn(CC#N)nc23)C[C@H]1C (stereo partly shown) [Compound A223] | > 10000 | > 10000
CC[C@H]1CN(C(C)c2cnc(C)cn2)[C@H](CC)CN1c1cc(=O)n(C)c2cn(CC#N)nc12 (stereo partly shown) [Compound A356] | 1570 | 635
CC[C@H]1CN(C(C)c2ccc(CN3CCOCC3)cc2)[C@H](CC)CN1c1cc(=O)n(C)c2cn(CC#N)nc12 (single isomer, unassigned) [Compound A383a] | 158 | 245
CC#CCn1cc2c(n1)c(N1C[C@@H](CC)N(C(C)c3ccc4c(c3)OC(F)(F)O4)C[C@@H]1C)cc(=O)n2C (single isomer, unassigned) [Compound A392a] | 1480 | 1320
CC[C@H]1CN(C(C)c2ccc(F)cn2)[C@H](CC)CN1c1cc(=O)n(C)c2cn(CC#N)nc12 (single isomer, unassigned) [Compound A74a] | 224 | 2.2
CC[C@H]1CN(C(C)c2cnc(C(F)(F)F)n2CC)[C@H](CC)CN1c1cc(=O)n(C)c2cn(CC#N)nc12 (stereo partly shown) [Compound A239] | 391 | > 10000

Source: patent US20240270751A1, “Pyrazolopyridinone Compounds” (BeiGene Ltd., priority 2021, published 2024)
